# Source: ChEMBL document CHEMBL1143283, “Preliminary biological evaluations of new thalidomide analogues for multiple sclerosis application” (Bioorg Med Chem Lett, 2009)
# The source made the active and inactive calls. The calls are words filed in the database; no cut-off is given here.
# How the values were obtained:
# [1] = Antiproliferative activity against human EAhy926 cells; format: functional, cell-based; conditions: EA.hy 926
# Mus musculus [2] = test: Antiangiogenesis activity against MOG peptide, pertussis toxin, Mycobacterium tuberculosis-induced experimental allergic encephalomyelitis C57BL/6J mouse model assessed as inhibition of multiple sclerosis at 100 mg/kg up to 15 days; format: functional, organism-based; set-up: dose 100 mg/kg
# Mus musculus [3] = test: Antiangiogenesis activity against MOG peptide, pertussis toxin, Mycobacterium tuberculosis-induced experimental allergic encephalomyelitis C57BL/6J mouse model assessed as inhibition of multiple sclerosis at dose equivalent to 100 mg/kg of thalidomide up to 15 days; format: functional, organism-based; set-up: dose 100 mg/kg
# EA.hy 926 [4] = test: Antiproliferative activity against human EAhy926 cells at 10 uM; format: functional, cell-based
# EA.hy 926 [5] = test: Antiproliferative activity against human EAhy926 cells at 12 uM; format: functional, cell-based
SMILES,IC50 [1] [µM],Activity (Mus musculus [3]),other results
CC(C)(C)OC(=O)NCCNc1ccc2c(c1)C(=O)N(C1CCC(=O)NC1=O)C2=O (stereo not drawn),41,,
O=C1CCC(N2C(=O)c3ccccc3C2=O)C(=O)N1 (stereo not drawn) [THALIDOMIDE],200,,Activity (Mus musculus [2]): inactive
O=C1CCC(N2C(=O)c3ccc(C(=O)O)cc3C2=O)C(=O)N1 (stereo not drawn),,Active,
O=C1CCC(N2C(=O)c3ccc(NCCCCC(NC(=O)[C@H](O)[C@H](O)[C@H](O[C@@H]4O[C@H](CO)[C@H](O)[C@H](O)[C@H]4O)[C@H](O)CO)C(=O)NCCC(F)(F)C(F)(F)C(F)(F)C(F)(F)C(F)(F)C(F)(F)C(F)(F)C(F)(F)F)cc3C2=O)C(=O)N1 (stereo partly drawn),,inactive,
O=C1CCC(N2C(=O)c3ccc([N+](=O)[O-])cc3C2=O)C(=O)N1 (stereo not drawn),,,Activity (EA.hy 926 [4]): inactive; Activity (EA.hy 926 [5]): inactive
Nc1ccc2c(c1)C(=O)N(C1CCC(=O)NC1=O)C2=O (stereo not drawn),,inactive,
NCCNc1ccc2c(c1)C(=O)N(C1CCC(=O)NC1=O)C2=O (stereo not drawn),,inactive,Activity (EA.hy 926 [4]): inactive; Activity (EA.hy 926 [5]): inactive
O=C1CCC(N2C(=O)c3ccc(NCCCNC(=O)C(O)C(O)C(O[C@@H]4O[C@H](CO)[C@H](O)[C@H](O)[C@H]4O)C(O)CO)cc3C2=O)C(=O)N1 (stereo partly drawn),,Active,
NCCNc1cccc2c1C(=O)N(C1CCC(=O)NC1=O)C2=O (stereo not drawn),150,,
